Results: ChEMBL document CHEMBL3885861, “Open TG-GATES”

Organism: Rattus norvegicus
Assay: Open TG-GATES - Regimen: Daily Repeat
Assay type: toxicity, organism-based, Sprague-Dawley
Parameters: regimen Daily Repeat, gender Male, age 6 weeks
Settings: in vivo, po, route gavage; for gamma-GTP / ALP / ALT / AST / BUN / CRE / DBIL / GLC / IP / K / LDH / Na / PL / RALB / TBIL / TC / TG / TP: tissue Plasma; for APTT / Bas / Eos / Fbg / Hb / Ht / Lym / MCH / MCHC / MCV / Mono / Neu / PT / Plat / RBC / Ret / WBC: tissue Blood; for KIDNEY_L / KIDNEY_R / KIDNEY_TOTAL: tissue Kidney; for LIVER: tissue Liver
[1] = 450 mg/kg, 72 h, dose level High, time 3 day
[2] = 450 mg/kg, […], dose level High, time 7 day
[3] = 450 mg/kg, […], dose level High, time 14 day
[4] = 450 mg/kg, […], dose level High, time 28 day

Work on `CC(CCc1ccccc1)NCC(O)c1ccc(O)c(C(N)=O)c1` (centres undefined) [LABETALOL] yielded a gamma-GTP (150 mg/kg, […], dose level Middle, time 28 day) of 1.2 IU/L, a TERMINAL_BW [1] of 240.1 g and an APTT [1] of 17 s. For the same compound, the Bas [1] was 0%, the Eos [1] was 0.8% and the Fbg [1] was 275.8 mg/dL. It also gave a Hb [1] of 13.6 g/dL, a Ht [1] of 39.8% and a Lym [1] of 79%. It also gave an MCH [1] of 21.2 pg, an MCHC [1] of 34.2% and an MCV [1] of 61.9 fL. For the same compound, the Mono [1] was 2.4%, the Neu [1] was 17.2% and the PT [1] was 12.9 s. For the same compound, the Plat [1] was 114.3 x10_4/uL, the RBC [1] was 644 x10_4/ul and the Ret [1] was 6.4%. For the same compound, the WBC [1] was 89.1 x10_2/uL, the KIDNEY_L [1] was 1 g and the KIDNEY_R [1] was 1 g. It also gave a KIDNEY_TOTAL [1] of 2 g, an LIVER [1] of 9.9 g and an ALP [1] of 1714 IU/L. The ALT [1] was 45.4 IU/L, the AST [1] was 61.8 IU/L and the BUN [1] was 16.4 mg/dL. The CRE [1] was 0.2 mg/dL, the DBIL [1] was 0.014 mg/dL and the GLC [1] was 162.8 mg/dL. It also gave an IP [1] of 7.1 mg/dL, a K [1] of 4.4 meq/L and an LDH [1] of 45.2 IU/L. It also gave a Na [1] of 142.6 meq/L, a PL [1] of 142.8 mg/dL and an RALB [1] of 2.6 g/dL. For the same compound, the TBIL [1] was 0.038 mg/dL, the TC [1] was 88 mg/dL and the TG [1] was 43.6 mg/dL. It also gave a TP [1] of 5.6 g/dL, a gamma-GTP [1] of 1 IU/L and a TERMINAL_BW [2] of 269.7 g. The TERMINAL_BW [3] was 293.4 g, the TERMINAL_BW [4] was 333.5 g and the APTT [2] was 17.5 s. It also gave a Bas [2] of 0%, an Eos [2] of 0.8% and a Fbg [2] of 266.4 mg/dL. For the same compound, the Hb [2] was 14.1 g/dL, the Ht [2] was 40.5% and the Lym [2] was 77.8%. The MCH [2] was 21.1 pg, the MCHC [2] was 34.7% and the MCV [2] was 60.7 fL. The Mono [2] was 3.4%, the Neu [2] was 17.4% and the PT [2] was 13.5 s. For the same compound, the Plat [2] was 97.4 x10_4/uL, the RBC [2] was 667.6 x10_4/ul and the Ret [2] was 4%. For the same compound, the WBC [2] was 80.1 x10_2/uL, the APTT [3] was 18.2 s and the Bas [3] was 0%. The Eos [3] was 1%, the Fbg [3] was 278 mg/dL and the Hb [3] was 15.3 g/dL. The Ht [3] was 44.1%, the Lym [3] was 78.3% and the MCH [3] was 20.6 pg. It also gave an MCHC [3] of 34.8%, an MCV [3] of 59.1 fL and a Mono [3] of 2%. The Neu [3] was 17.7%, the PT [3] was 13.6 s and the Plat [3] was 94.8 x10_4/uL. It also gave an RBC [3] of 745 x10_4/ul, a Ret [3] of 2.9% and a WBC [3] of 85.7 x10_2/uL. For the same compound, the APTT [4] was 19.7 s, the Bas [4] was 0% and the Eos [4] was 1%. For the same compound, the Fbg [4] was 228.5 mg/dL, the Hb [4] was 15.9 g/dL and the Ht [4] was 44.5%. The Lym [4] was 78.5%, the MCH [4] was 19.5 pg and the MCHC [4] was 35.6%. For the same compound, the MCV [4] was 54.7 fL, the Mono [4] was 2% and the Neu [4] was 18%. For the same compound, the PT [4] was 14.7 s, the Plat [4] was 79 x10_4/uL and the RBC [4] was 813.5 x10_4/ul. It also gave a Ret [4] of 1%, a WBC [4] of 104.3 x10_2/uL and a KIDNEY_L [2] of 1.2 g. It also gave a KIDNEY_R [2] of 1.1 g, a KIDNEY_TOTAL [2] of 2.3 g and a KIDNEY_L [3] of 1.1 g. It also gave a KIDNEY_R [3] of 1.2 g, a KIDNEY_TOTAL [3] of 2.3 g and a KIDNEY_L [4] of 1.4 g. It also gave a KIDNEY_R [4] of 1.3 g, a KIDNEY_TOTAL [4] of 2.6 g and an LIVER [2] of 11 g. For the same compound, the LIVER [3] was 10.8 g, the LIVER [4] was 11.6 g and the ALP [2] was 1741.8 IU/L. For the same compound, the ALT [2] was 55.8 IU/L, the AST [2] was 65.8 IU/L and the BUN [2] was 16.2 mg/dL. It also gave a CRE [2] of 0.2 mg/dL, a DBIL [2] of 0.008 mg/dL and a GLC [2] of 162.2 mg/dL. It also gave a K [2] of 4.3 meq/L, an LDH [2] of 50 IU/L and a Na [2] of 142.4 meq/L. The PL [2] was 149.8 mg/dL, the RALB [2] was 2.6 g/dL and the TBIL [2] was 0.03 mg/dL. For the same compound, the TC [2] was 91.2 mg/dL, the TG [2] was 37.2 mg/dL and the TP [2] was 5.7 g/dL. For the same compound, the gamma-GTP [2] was 1.2 IU/L, the ALP [3] was 1433.3 IU/L and the ALT [3] was 45.3 IU/L. The AST [3] was 61.3 IU/L, the BUN [3] was 18.7 mg/dL and the CRE [3] was 0.3 mg/dL. For the same compound, the DBIL [3] was 0.01 mg/dL, the GLC [3] was 176.7 mg/dL and the K [3] was 3.8 meq/L. For the same compound, the LDH [3] was 47.7 IU/L, the Na [3] was 145.3 meq/L and the PL [3] was 138 mg/dL. It also gave an RALB [3] of 2.7 g/dL, a TBIL [3] of 0.0267 mg/dL and a TC [3] of 79.3 mg/dL. The TG [3] was 38.3 mg/dL, the TP [3] was 6 g/dL and the gamma-GTP [3] was 1.3 IU/L. The ALP [4] was 1187.5 IU/L, the ALT [4] was 54 IU/L and the AST [4] was 70 IU/L. It also gave a BUN [4] of 25 mg/dL, a CRE [4] of 0.3 mg/dL and a DBIL [4] of 0.02 mg/dL. It also gave a GLC [4] of 159.5 mg/dL, an IP [4] of 7.8 mg/dL and a K [4] of 4.2 meq/L. The LDH [4] was 38.5 IU/L, the Na [4] was 141 meq/L and the PL [4] was 125.5 mg/dL. For the same compound, the RALB [4] was 2.7 g/dL, the TBIL [4] was 0.04 mg/dL and the TC [4] was 62 mg/dL. For the same compound, the TG [4] was 61.5 mg/dL, the TP [4] was 6 g/dL and the gamma-GTP [4] was 2 IU/L.
